From publication PMC4209782 (Biochemical Journal, 2014)
Where two headings read alike, the source gives them in different places.

Key:
Format in all cases: binding
[1] = system: T1, 3×FLAG–SGK3-(1–162) R90A PX domain; assay: ITC, SGK3 PX domain R90A
T1 construct: 3×FLAG–SGK3-(1–162) R90A PX domain (right panel); host or cells: E. coli BL21-CodonPlus (DE3)-RIL (from general methods, not tied expressly to this protein)
Procedure: (§1) ITC experiments were carried out on a Microcal VP-ITC. A series of injections of peptide were made into an isolated chamber containing the protein at a constant temperature of 30°C. Heat changes within the cell were monitored during each injection of peptide and recorded as the total heat change per second over time. A binding isotherm was then fitted to data and expressed as the heat change per mol of peptide against the peptide/protein ratio. Injectant was PtdIns and PtdIns(3)P (Echelon) dissolved in buffer (50 mM Hepes, pH 7.4, and 150 mM NaCl). […] Data were analysed using Origin 7.0 with the Microcal software patch installed. […]
(§2) Figure 5 SGK3 binds to PtdIns(3)P via its PX domain (A) ITC was performed by gradually titrating 0.5 mM PtdIns(3)P into the reaction chamber containing wild-type 3×FLAG–SGK3-(1–162) PX domain (left panel) or mutant 3×FLAG–SGK3-(1–162) R50A PX domain (middle panel) and 3×FLAG–SGK3-(1–162) R90A PX domain (right panel). […] Kd were calculated using Origin 7.0 with ITC data analysis disc program. (B) The ability of the indicated GST fusion proteins to bind various phosphoinositides was analysed. […] The membranes were washed and the PX domain protein bound to the membrane by virtue of its interaction with lipid was detected using by using HRP-conjugated anti-FLAG antibodies (SGK3 PX domain) or anti-GST (PH domains).

[2] = system: T2, 3×FLAG–SGK3-(1–162) R50A PX domain; assay: ITC, SGK3 PX domain R50A
T2 construct: mutant 3×FLAG–SGK3-(1–162) R50A PX domain (middle panel); host or cells: E. coli BL21-CodonPlus (DE3)-RIL (from general methods, not tied expressly to this protein)
Procedure: as §1, §2

[3] = biological target: T3, 3×FLAG–SGK3-(1–162) PX domain wild-type (Homo sapiens, UniProt Q96BR1); assay: ITC, wild-type SGK3 PX domain; settings: 30°C
T3 construct: reaction chamber containing wild-type 3×FLAG–SGK3-(1–162) PX domain; host or cells: E. coli BL21-CodonPlus (DE3)-RIL (from general methods, not tied expressly to this protein)
T3 sequence (Q96BR1 1-162): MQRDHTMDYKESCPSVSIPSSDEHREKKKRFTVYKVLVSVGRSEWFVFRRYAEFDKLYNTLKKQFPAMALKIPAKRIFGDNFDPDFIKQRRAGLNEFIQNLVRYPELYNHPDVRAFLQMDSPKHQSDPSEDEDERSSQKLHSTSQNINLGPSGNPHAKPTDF
Procedure: as §1, §2

binding to PX domain with Arg90 to alanine mutation [1]: abolished binding | binding to PX domain with Arg50 to alanine mutation [2]: abolished binding | Kd ([3]; read-out: Kd1): 1.8 µM | Kd ([3]; read-out: Kd2): 5.2 µM
Substance: PtdIns(3)P
